Assay results reported in patent US10030004B2, “Compounds and methods of use” (Medivation Technologies LLC, priority 2014, dated 2018).
Where two headings read alike, the source gives them in different places.

How the values were obtained:
ALK2 (ACVR1) = ALK2 (ACVR1) (Homo sapiens (Human), UniProt Q04771); test: In vitro kinase assay, ALK2; assay type: biochemical; conditions: read-out: Inhibition of ALK2 IC50
ALK1 (ACVRL1) = ALK1 (ACVRL1) (Homo sapiens (Human), UniProt P37023); test: In vitro kinase assay, ALK1; assay type: biochemical; conditions: 10 μM ATP; read-out: Inhibition of ALK1 IC50
ALK3 (BMPR1A) = ALK3 (BMPR1A) (Homo sapiens (Human), UniProt P36894); test: In vitro kinase assay, ALK3; assay type: biochemical; conditions: 10 μM ATP; read-out: Inhibition of ALK3 IC50
ALK6 (BMPR1B) = ALK6 (BMPR1B) (Homo sapiens (Human), UniProt O00238); test: In vitro kinase assay, ALK6; assay type: biochemical
[1] = Pharmacokinetics and bioavailability in male mice after a single dose; assay type: in vivo; conditions: for half-life: read-out: Terminal t1/2 (converted)
p-SMAD2 = p-SMAD2 inhibition, Western Blot Analysis in TGFβ-stimulated MDA-MB-231 cells; assay type: cell-based; conditions: Homo sapiens, TGFβ 2 ng/mL, triplicate; for inhibition at 0.1 µM: 0.1 μM compound, read-out: Average p-SMAD2 inhibition @ 0.1 μM (% Inh)
ALK5 (TGFBR1) = ALK5 (TGFBR1) (Homo sapiens (Human), UniProt P36897); test: In vitro kinase assay, ALK5; assay type: biochemical; conditions: 10 μM ATP; read-out: Inhibition of ALK5 IC50
ALK4 (ACVR1B) = ALK4 (ACVR1B) (Homo sapiens (Human), UniProt P36896); test: In vitro kinase assay, ALK4; assay type: biochemical; conditions: 10 μM ATP; read-out: Inhibition of ALK4 IC50
[2] = 10 μM ATP, read-out: Inhibition of ALK6 IC50
[3] = mouse, plasma, intravenous, 2 mg/kg

ALK2 (ACVR1), sequence (Q04771 21-509): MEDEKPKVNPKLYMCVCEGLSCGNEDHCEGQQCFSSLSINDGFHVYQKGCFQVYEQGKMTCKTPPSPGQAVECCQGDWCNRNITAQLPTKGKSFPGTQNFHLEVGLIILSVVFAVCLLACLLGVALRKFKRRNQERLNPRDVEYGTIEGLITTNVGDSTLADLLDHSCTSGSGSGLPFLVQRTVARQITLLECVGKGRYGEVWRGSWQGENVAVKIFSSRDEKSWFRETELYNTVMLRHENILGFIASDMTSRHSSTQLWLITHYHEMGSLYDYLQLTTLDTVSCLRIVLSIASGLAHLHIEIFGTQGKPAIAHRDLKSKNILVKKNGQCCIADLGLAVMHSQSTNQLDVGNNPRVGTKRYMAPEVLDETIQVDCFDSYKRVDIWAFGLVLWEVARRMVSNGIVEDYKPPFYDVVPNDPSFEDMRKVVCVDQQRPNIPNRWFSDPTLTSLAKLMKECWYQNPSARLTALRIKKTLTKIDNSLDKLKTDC
ALK6 (BMPR1B), sequence (O00238 14-502): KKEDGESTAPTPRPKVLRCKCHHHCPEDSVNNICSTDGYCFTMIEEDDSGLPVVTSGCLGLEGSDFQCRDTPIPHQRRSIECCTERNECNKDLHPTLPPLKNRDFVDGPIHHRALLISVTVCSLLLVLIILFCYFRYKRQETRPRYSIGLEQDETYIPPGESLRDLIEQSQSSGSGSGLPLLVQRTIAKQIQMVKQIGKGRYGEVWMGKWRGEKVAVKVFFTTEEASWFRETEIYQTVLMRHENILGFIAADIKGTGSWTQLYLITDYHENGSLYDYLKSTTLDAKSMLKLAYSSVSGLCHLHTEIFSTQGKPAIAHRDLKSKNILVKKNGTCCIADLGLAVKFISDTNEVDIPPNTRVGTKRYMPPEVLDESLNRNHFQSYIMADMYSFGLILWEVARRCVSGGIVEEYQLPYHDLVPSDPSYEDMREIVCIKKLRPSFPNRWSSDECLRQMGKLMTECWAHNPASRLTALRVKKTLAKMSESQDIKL
ALK1 (ACVRL1), sequence (P37023 22-503): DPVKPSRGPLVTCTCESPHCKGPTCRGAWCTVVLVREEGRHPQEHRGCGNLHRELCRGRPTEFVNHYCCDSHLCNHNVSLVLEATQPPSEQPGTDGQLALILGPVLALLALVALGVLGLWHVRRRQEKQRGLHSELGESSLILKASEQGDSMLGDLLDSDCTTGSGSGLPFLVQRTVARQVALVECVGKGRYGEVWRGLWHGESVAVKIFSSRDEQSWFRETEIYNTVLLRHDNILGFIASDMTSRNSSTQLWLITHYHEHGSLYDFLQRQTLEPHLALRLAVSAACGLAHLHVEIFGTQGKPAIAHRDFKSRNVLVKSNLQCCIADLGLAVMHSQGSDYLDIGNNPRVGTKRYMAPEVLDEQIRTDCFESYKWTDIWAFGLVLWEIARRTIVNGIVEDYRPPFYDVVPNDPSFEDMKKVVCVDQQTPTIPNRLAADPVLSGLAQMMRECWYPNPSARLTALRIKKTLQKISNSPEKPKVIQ
ALK3 (BMPR1A), sequence (P36894 24-532): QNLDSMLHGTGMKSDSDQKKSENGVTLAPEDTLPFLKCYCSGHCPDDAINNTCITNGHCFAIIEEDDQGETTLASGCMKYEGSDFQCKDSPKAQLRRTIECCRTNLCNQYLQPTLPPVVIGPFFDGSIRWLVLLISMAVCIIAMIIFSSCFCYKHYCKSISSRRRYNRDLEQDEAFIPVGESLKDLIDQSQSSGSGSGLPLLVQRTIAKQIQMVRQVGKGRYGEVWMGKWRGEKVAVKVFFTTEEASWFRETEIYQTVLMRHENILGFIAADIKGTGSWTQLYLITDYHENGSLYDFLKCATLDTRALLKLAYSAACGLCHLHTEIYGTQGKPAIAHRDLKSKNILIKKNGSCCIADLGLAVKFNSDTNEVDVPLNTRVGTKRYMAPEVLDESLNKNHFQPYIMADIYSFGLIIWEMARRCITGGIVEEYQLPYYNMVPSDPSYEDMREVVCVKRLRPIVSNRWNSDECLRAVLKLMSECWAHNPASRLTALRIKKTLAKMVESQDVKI
ALK4 (ACVR1B), sequence (P36896 24-505): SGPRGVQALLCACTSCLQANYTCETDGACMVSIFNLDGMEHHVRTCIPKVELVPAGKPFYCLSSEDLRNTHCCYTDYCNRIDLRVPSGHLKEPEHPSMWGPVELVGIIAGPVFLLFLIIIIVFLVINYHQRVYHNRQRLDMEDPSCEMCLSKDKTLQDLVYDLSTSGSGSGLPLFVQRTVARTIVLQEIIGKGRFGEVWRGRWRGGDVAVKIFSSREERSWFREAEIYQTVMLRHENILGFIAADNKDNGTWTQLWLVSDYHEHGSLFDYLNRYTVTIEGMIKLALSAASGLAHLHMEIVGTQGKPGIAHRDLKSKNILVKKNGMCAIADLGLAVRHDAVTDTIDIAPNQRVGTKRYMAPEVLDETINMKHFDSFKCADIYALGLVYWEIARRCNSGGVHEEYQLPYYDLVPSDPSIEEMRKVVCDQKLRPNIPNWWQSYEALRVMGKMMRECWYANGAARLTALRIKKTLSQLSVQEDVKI
ALK5 (TGFBR1), sequence (P36897 34-503): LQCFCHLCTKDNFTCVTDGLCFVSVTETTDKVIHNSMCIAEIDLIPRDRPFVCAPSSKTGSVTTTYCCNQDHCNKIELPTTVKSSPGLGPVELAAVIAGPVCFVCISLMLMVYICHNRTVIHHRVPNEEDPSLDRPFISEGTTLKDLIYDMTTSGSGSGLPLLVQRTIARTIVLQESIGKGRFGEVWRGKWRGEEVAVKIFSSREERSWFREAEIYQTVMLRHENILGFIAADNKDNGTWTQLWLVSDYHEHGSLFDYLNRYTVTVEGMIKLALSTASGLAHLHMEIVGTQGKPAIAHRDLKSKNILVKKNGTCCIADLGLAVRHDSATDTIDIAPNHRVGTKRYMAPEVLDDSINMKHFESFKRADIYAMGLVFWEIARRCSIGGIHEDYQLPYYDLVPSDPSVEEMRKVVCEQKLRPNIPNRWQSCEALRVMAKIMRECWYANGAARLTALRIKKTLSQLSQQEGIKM

SMILES	IC50 (ALK2 (ACVR1); 10 μM ATP)	IC50 (ALK1 (ACVRL1))	IC50 (ALK3 (BMPR1A))	IC50 (ALK6 (BMPR1B); [2])	other results
CC(C)c1cnc(-c2ccccc2)cc1Nc1ccncc1C(=O)NC[C@H](C)O [compound 28, N-(2-hydroxypropyl)-4-[(5-isopropyl-2-phenyl-4-pyridyl)amino]pyridine-3-carboxamide]	> 1000 µM	> 100 µM	> 1000 µM	> 1000 µM	
C=C(C)c1cnc(-c2cc(Cl)ccc2F)cc1Nc1ccncc1C(=O)N[C@@H](CC)CO (single isomer, unassigned) [24a]	> 100 µM	> 100 µM	> 100 µM	> 100 µM	
C=C(C)c1cnc(-c2cc(Cl)ccc2F)cc1Nc1ccncc1C(=O)NC(C)(C)CO [compound 8, 4-[[2-(5-chloro-2-fluoro-phenyl)-5-isopropenyl-4-pyridyl]amino]-N-(2-hydroxy-1,1-dimethyl-ethyl)pyridine-3-carboxamide]		> 100 µM	> 100 µM		V ([1]; intravenous, 2 mg/kg): 14.9 L/kg; AUC(0-t) [1, 3]: 0.709 µM·h; Cmax [1, 3]: 1240 nM; clearance [1, 3]: 103 mL/min/kg; half-life [1, 3]: 1.68 h; AUC(0-t) ([1]; mouse, plasma, oral, 10 mg/kg): 1.31 µM·h; Cmax ([1]; mouse, plasma, oral, 10 mg/kg): 1060 nM; Tmax ([1]; mouse, plasma, oral, 10 mg/kg): 0.25 h; bioavailability ([1]; mouse, plasma, oral, 10 mg/kg): 36.9%; half-life ([1]; mouse, plasma, oral, 10 mg/kg): 1.26 h; IC50 (ALK2 (ACVR1)): > 100 µM
C=Cc1cnc(-c2cc(Cl)ccc2F)cc1Nc1ccncc1C(=O)NC[C@H](C)O [10a, (S)-4-(2-(5-chloro-2-fluorophenyl)-5-vinylpyridin-4-ylamino)-N-(2-hydroxypropyl)nicotinamide]					inhibition at 0.1 µM (p-SMAD2): 0%
C[C@H](O)CNC(=O)c1cnccc1Nc1cc(-c2cc(Cl)ccc2F)ncc1C1CC1 [compound 31, 4-{[2-(5-chloro-2-fluorophenyl)-5-cyclopropylpyridin-4-yl]amino}-N-[(2S)-2-hydroxypropyl]pyridine-3-carboxamide]	> 10 µM	> 10 µM	> 10 µM	> 10 µM	
CC(C)c1cnc(-c2cc(Cl)ccc2F)cc1Nc1ccncc1C(=O)N1CCC(O)CC1 [compound 9, [4-[[2-(5-chloro-2-fluoro-phenyl)-5-isopropyl-4-pyridyl]amino]-3-pyridyl]-(4-hydroxy-1-piperidyl)methanone]					inhibition at 0.1 µM (p-SMAD2): 6%; inhibition at 0.5 µM (p-SMAD2; 0.5 μM compound, read-out: Average p-SMAD2 inhibition @ 0.5 μM (% Inh)): 12.7%
CC(O)CNC(=O)c1c[nH]nc1Nc1cc(-c2cc(Cl)ccc2F)ncc1C(C)C (single isomer, unassigned) [21a, 3-[[2-(5-chloro-2-fluoro-phenyl)-5-isopropyl-4-pyridyl]amino]-N-(2-hydroxypropyl)-1H-pyrazole-4-carboxamide]	> 1000 µM	> 100 µM	> 1000 µM		IC50 (ALK5 (TGFBR1)): > 100 µM; IC50 (ALK6 (BMPR1B)): > 1000 µM; IC50 (ALK4 (ACVR1B)): > 1000 µM
